What all share (assay): DTP human tumour cell line panel, 48 h
Assay [1] deals with 786-0.
The test system of assay [2] is CAKI-1.
In assay [3] the test system is CCRF-CEM.
Assay [4] relates to HL-60.
The test system of assay [5] is Hs-578T.
Assay [6] deals with M14.
The test system of assay [7] is MCF7.
Assay [8] concerns MDA-MB-231.
The test system of assay [9] is MDA-N.
In assay [10] the test system is RPMI-8226.
Assay [11] concerns SF-268.
Assay [12] deals with SF-295.
Assay [13] has as its system SK-MEL-28.
Assay [14] deals with SK-OV-3.
For assay [15], the system named is SN12C.
The test system of assay [16] is SW-620.
Assay [17] concerns TK-10.
For assay [18], the system named is U-251.
For assay [19], the system named is UACC-257.
Assay [20] has as its system UACC-62.

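Each compound was tested at five concentrations against cells in 96-well plates for 48 hours. GI50 is the concentration that inhibits growth by half.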 The source made the active and inactive calls. Cut-off read from the data, not from the text of the source: active = GI50 up to about 1.1 µM and inactive = higher.

Regarding `Cc1nc(-c2cc3c(ccc4ccccc43)oc2=O)cs1`, the GI50 was 39.1 µM (inactive) in assay [1]; > 100 µM (inactive) in assay [2]; > 100 µM (inactive) in [3]; > 100 µM (inactive) in assay [4]; 30.3 µM (inactive) in assay [5]; 83.9 µM (inactive) in [6]. For the same compound, the GI50 in [7] was > 100 µM (inactive); in assay [8] it was 70.5 µM (inactive); in [9] it was > 100 µM (inactive); in assay [10], > 100 µM (inactive); in [11] it was 35.6 µM (inactive); in [12] it was 41.8 µM (inactive). Moreover, the GI50 in assay [13] was > 100 µM (inactive); in assay [14] it was 37.8 µM (inactive); in assay [15] it was > 100 µM (inactive); in [16], > 100 µM (inactive); in assay [17], 46.7 µM (inactive); in [18], 57.9 µM (inactive). In addition, the results for the GI50 in assay [19] and in [20] were > 100 µM (inactive) and 26 µM (inactive), respectively.

For the compound `CC(=O)OCC1C(=O)OCC1C(=O)N1Cc2cc3ccccc3nc2C1` (stereo not given), the GI50 in assay [1] was 1.58 µM (inactive); in assay [2], 0.955 µM (active); in assay [3], 0.488 µM (active); in assay [4] it was 0.794 µM (active); in assay [5], 7.14 µM (inactive); in assay [6], 1.56 µM (inactive). Also, the GI50 in assay [7] was 1.48 µM (inactive); in assay [8], 6.4 µM (inactive); in [9], 2.75 µM (inactive); in [10], 1.37 µM (inactive); in [11], 7.41 µM (inactive); in assay [12] it was 16.1 µM (inactive). Further, the GI50 in assay [13] was 2.55 µM (inactive); in assay [14] it was 16.7 µM (inactive); in [15], 5.27 µM (inactive); in [16], 0.469 µM (active); in [17], 1.61 µM (inactive); in [18], 11.3 µM (inactive). Further, the GI50 is 2.47 µM (inactive) in assay [19] and 3.46 µM (inactive) in assay [20].

For the compound `OC(CC(O)(C(F)(F)Cl)C(F)(F)Cl)c1ccccc1` (stereo not given), the GI50 in assay [1] is < 0.001 µM (active); in assay [2], > 10 µM (inactive); in assay [3] it was > 10 µM (inactive); in assay [4], > 10 µM (inactive); in assay [5], > 10 µM (inactive); in assay [6], < 0.001 µM (active). Besides, the GI50 in assay [7], in assay [8], in assay [9], in assay [10], in assay [11] and in assay [12] was > 10 µM (inactive) throughout. The GI50 in assay [13], in assay [14], in assay [15], in assay [16], in assay [17] and in assay [18] was > 10 µM (inactive) throughout. Moreover, the GI50 in assay [19] and in [20] was > 10 µM (inactive) in each case.

On to `S=C(N/N=C(\c1ccccc1)c1ccccn1)NC1CCCCC1`, for which the GI50 was 18 µM (inactive) in assay [1]; 0.834 µM (active) in assay [2]; 0.322 µM (active) in assay [3]; 0.16 µM (active) in assay [4]; > 35 µM (inactive) in assay [5]; 1.16 µM (inactive) in assay [6]. Also, the GI50 is 0.433 µM (active) in assay [7]; 1.57 µM (inactive) in assay [8]; 78.7 µM (inactive) in assay [9]; 2.16 µM (inactive) in [10]; 2.66 µM (inactive) in assay [11]; 26.5 µM (inactive) in assay [12]. For the same compound, the GI50 was 46.1 µM (inactive) in assay [13]; 11.5 µM (inactive) in assay [14]; 0.804 µM (active) in assay [15]; 1.19 µM (inactive) in assay [16]; 0.849 µM (active) in [17]; 0.979 µM (active) in assay [18]. Moreover, the GI50 is 2.24 µM (inactive) in assay [19] and > 29.8 µM (inactive) in assay [20].

Turning to `CN(C)CC1=Nc2cccc3cccc(c23)N1`, the GI50 in assay [1] was 12.4 µM (inactive); in assay [2], 21.5 µM (inactive); in assay [3] it was 0.235 µM (active); in [4] it was 13.2 µM (inactive); in assay [5] it was 34.7 µM (inactive); in assay [6] it was 19.5 µM (inactive). Moreover, the GI50 in [7] was 13.1 µM (inactive); in assay [8], 17.8 µM (inactive); in [9] it was 18.4 µM (inactive); in [10], 3.3 µM (inactive); in [11] it was 18.9 µM (inactive); in assay [12], > 100 µM (inactive). In addition, the GI50 in assay [13] is 22.1 µM (inactive); in assay [14], > 100 µM (inactive); in [15] it was 16.8 µM (inactive); in [16] it was 4.08 µM (inactive); in assay [17] it was 18.4 µM (inactive); in assay [18], 16.8 µM (inactive). The GI50 in assay [19] was 16.9 µM (inactive); in [20] it was 16.1 µM (inactive).

Consider `O=c1[nH]c2cc([N+](=O)[O-])c(N/N=C/c3ccc(Cl)cc3Cl)c([N+](=O)[O-])c2[nH]1`, for which the GI50 was 32.1 µM (inactive) in assay [1]; > 100 µM (inactive) in [2]; 23.8 µM (inactive) in assay [3]; > 100 µM (inactive) in assay [4]; 90.2 µM (inactive) in assay [5]; > 100 µM (inactive) in assay [6]. Besides, the GI50 is 42.6 µM (inactive) in assay [7]; 13.1 µM (inactive) in assay [8]; 7.48 µM (inactive) in [9]; 33.8 µM (inactive) in assay [10]; 75.3 µM (inactive) in [11]; > 100 µM (inactive) in [12]. For the same compound, the GI50 in assay [13] is > 100 µM (inactive); in [14], 30.1 µM (inactive); in [15], 37.5 µM (inactive); in assay [16] it was 26.7 µM (inactive); in assay [17], 31.6 µM (inactive); in assay [18], 34.4 µM (inactive). For the same compound, the GI50 in assay [19] and in assay [20] was > 100 µM (inactive) each time.

As for `CCN(CC)CCCNc1nncc2cc3c([nH]c4ccccc43)c(C)c12`, the GI50 in assay [1] was 5.53 µM (inactive); in assay [2], 33.4 µM (inactive); in [3], 4.1 µM (inactive); in [4] it was 5.02 µM (inactive); in assay [5], 14.1 µM (inactive); in assay [6], 20.5 µM (inactive). Also, the GI50 was 13.6 µM (inactive) in assay [7]; 4.65 µM (inactive) in [8]; 16.4 µM (inactive) in assay [9]; 12 µM (inactive) in [10]; 8.18 µM (inactive) in assay [11]; 16 µM (inactive) in assay [12]. The GI50 in assay [13] was 17.7 µM (inactive); in assay [14] it was 15.2 µM (inactive); in assay [15], 6.24 µM (inactive); in [16], 4.4 µM (inactive); in assay [17], 20.9 µM (inactive); in assay [18] it was 6.04 µM (inactive). For the same compound, the values for the GI50 in assay [19] and in [20] were 15.6 µM (inactive) and 15.7 µM (inactive), respectively.
